In patent US8192962B2, “Processes for detecting toxic substances” (Daikin Industries, Ltd., priority 2001, dated 2012):

System: Transport facilitation protein genes
Assay: DNA chip mRNA expression in yeast, transport facilitation protein genes (Table 5)
Assay type: cell-based, Saccharomyces cerevisiae S288C
Description: Yeast (Saccharomyces cerevisiae S288C (α SUC2mal mel gap2 CUP1)) were incubated at 25° C. on YPD medium (yeast extract 1%, polypepton 2%, glucose 2%). One of toxic chemical substances was added to the cells at logarithmic growth phase, and the cells were further incubated for two hours. Cells were cultured without any chemical substance in the same condition, and were used as control. Concentrations of the chemical substances were defined to inhibit the growth of the yeast but not lead to death.
After completion of the incubation, the culture was centrifuged to collect the cells. To the cells, sodium acetate buffer (50 mM sodium acetate, 10 mM EDTA, 1% SDS) was added, and the mixture was shaken at 65° C. for five minutes, followed by returning to room temperature, and obtaining the supernatant, of which the procedures were repeated two times. To the supernatant, ½ amount of a solution of phenol/chloroform was added, and the mixture was centrifuged to give a supernatant, which was added with an equal amount of chloroform, and the mixture was centrifuged to give a supernatant. To the supernatant, an equal amount of isopropanol containing 0.3 M sodium acetate was added, and the mixture was allowed to stand at room temperature for 30 minutes, after which the mixture was centrifuged to give a sediment of the whole RNAs. Seventy % ethanol was added to the sediment, and the mixture was again centrifuged to give a sediment, which was then dried and dissolved in water. mRNA was isolated from the whole RNAs as followings. In view of the fact that a poly A chain is attached to the 3′ terminus of mRNA, a polynucleotide having a poly T structure which was immobilized on the surface of latex beads was used to trap the mRNA, and then the mRNA was washed and eluted with spine column (Oligotex-dT30<Super>mRNA Purification Kit, Takara). Reverse transcription of the mRNA was conducted with a reverse transcriptase (Super Script II Reverse Transcriptase; catalogue No. 18064-014, GibcoBRL) using fluorescence-labeled nucleotides to give cDNAs that were introduced with Cy3-dUTP or Cy5-dUTP during the reverse transcription.
The labeled cDNAs were dissolved in TE buffer (10mM Tris-HCl/1 mM EDTA, pH8.0), and the solution was dropped on the DNA chip containing the whole genes of yeast (DNA Chip Research Inc. Japan) so that the cDNAs were hybridized on the DNA chip at 65° C. for over 12 hours. The fluoresces intensity of the DNA chip was read with a scanner, and the ratio relative to the fluorescence intensity resulting from the absence of chemical substance was estimated as the following, which is shown in Tables 1 to 9: […]

## Oc1cc(Cl)c(Cl)cc1Cl [(6), 2,4,5-trichlorophenol]
Yeast gene YGR281W
  The level of expressed mRNA in the presence of chemical substance/The level of expressed mRNA in the absence of chemical substance: 1.9
Yeast gene YHL035C
  The level of expressed mRNA in the presence of chemical substance/The level of expressed mRNA in the absence of chemical substance: 4.1
Yeast gene YHL040C
  The level of expressed mRNA in the presence of chemical substance/The level of expressed mRNA in the absence of chemical substance: 7.3
Yeast gene YHL047C
  The level of expressed mRNA in the presence of chemical substance/The level of expressed mRNA in the absence of chemical substance: 8.4
Yeast gene YHR026W
  The level of expressed mRNA in the presence of chemical substance/The level of expressed mRNA in the absence of chemical substance: 1.3
Yeast gene YHR092C
  The level of expressed mRNA in the presence of chemical substance/The level of expressed mRNA in the absence of chemical substance: 1.7
Yeast gene YHR094C
  The level of expressed mRNA in the presence of chemical substance/The level of expressed mRNA in the absence of chemical substance: 1.6
Yeast gene YHR175W
  The level of expressed mRNA in the presence of chemical substance/The level of expressed mRNA in the absence of chemical substance: 1.0
Yeast gene YIL006W
  The level of expressed mRNA in the presence of chemical substance/The level of expressed mRNA in the absence of chemical substance: 0.3
Yeast gene YIL022W
  The level of expressed mRNA in the presence of chemical substance/The level of expressed mRNA in the absence of chemical substance: 1.2
Yeast gene YIL056W
  The level of expressed mRNA in the presence of chemical substance/The level of expressed mRNA in the absence of chemical substance: 1.0
Yeast gene YIL088C
  The level of expressed mRNA in the presence of chemical substance/The level of expressed mRNA in the absence of chemical substance: 2.2
Yeast gene YJL034W
  The level of expressed mRNA in the presence of chemical substance/The level of expressed mRNA in the absence of chemical substance: 1.1
Yeast gene YJL212C
  The level of expressed mRNA in the presence of chemical substance/The level of expressed mRNA in the absence of chemical substance: 1.1
Yeast gene YJL219W
  The level of expressed mRNA in the presence of chemical substance/The level of expressed mRNA in the absence of chemical substance: 1.5
Yeast gene YJR077C
  The level of expressed mRNA in the presence of chemical substance/The level of expressed mRNA in the absence of chemical substance: 0.9
Yeast gene YJR106W
  The level of expressed mRNA in the presence of chemical substance/The level of expressed mRNA in the absence of chemical substance: 1.2
Yeast gene YJR121W
  The level of expressed mRNA in the presence of chemical substance/The level of expressed mRNA in the absence of chemical substance: 1.5
Yeast gene YKL016C
  The level of expressed mRNA in the presence of chemical substance/The level of expressed mRNA in the absence of chemical substance: 0.8
Yeast gene YKL146W
  The level of expressed mRNA in the presence of chemical substance/The level of expressed mRNA in the absence of chemical substance: 1.3
Yeast gene YKR039W
  The level of expressed mRNA in the presence of chemical substance/The level of expressed mRNA in the absence of chemical substance: 2.8
Yeast gene YKR067W
  The level of expressed mRNA in the presence of chemical substance/The level of expressed mRNA in the absence of chemical substance: 1.8
Yeast gene YLL028W
  The level of expressed mRNA in the presence of chemical substance/The level of expressed mRNA in the absence of chemical substance: 1.7
Yeast gene YLL055W
  The level of expressed mRNA in the presence of chemical substance/The level of expressed mRNA in the absence of chemical substance: 1.4
Yeast gene YLR081W
  The level of expressed mRNA in the presence of chemical substance/The level of expressed mRNA in the absence of chemical substance: 0.9
Yeast gene YLR295C
  The level of expressed mRNA in the presence of chemical substance/The level of expressed mRNA in the absence of chemical substance: 1.1
Yeast gene YLR348C
  The level of expressed mRNA in the presence of chemical substance/The level of expressed mRNA in the absence of chemical substance: 1.9
Yeast gene YLR378C
  The level of expressed mRNA in the presence of chemical substance/The level of expressed mRNA in the absence of chemical substance: 1.2
Yeast gene YMR011W
  The level of expressed mRNA in the presence of chemical substance/The level of expressed mRNA in the absence of chemical substance: 0.6
Yeast gene YMR058W
  The level of expressed mRNA in the presence of chemical substance/The level of expressed mRNA in the absence of chemical substance: 2.6
Yeast gene YMR162C
  The level of expressed mRNA in the presence of chemical substance/The level of expressed mRNA in the absence of chemical substance: 1.0
Yeast gene YMR203W
  The level of expressed mRNA in the presence of chemical substance/The level of expressed mRNA in the absence of chemical substance: 1.1
Yeast gene YNL055C
  The level of expressed mRNA in the presence of chemical substance/The level of expressed mRNA in the absence of chemical substance: 2.6
Yeast gene YNL259C
  The level of expressed mRNA in the presence of chemical substance/The level of expressed mRNA in the absence of chemical substance: 3.9
Yeast gene YNR072W
  The level of expressed mRNA in the presence of chemical substance/The level of expressed mRNA in the absence of chemical substance: 0.9
Yeast gene YOL119C
  The level of expressed mRNA in the presence of chemical substance/The level of expressed mRNA in the absence of chemical substance: 0.9
Yeast gene YOL156W
  The level of expressed mRNA in the presence of chemical substance/The level of expressed mRNA in the absence of chemical substance: 1.2
Yeast gene YOL163W
  The level of expressed mRNA in the presence of chemical substance/The level of expressed mRNA in the absence of chemical substance: 0.5
Yeast gene YOR035C
  The level of expressed mRNA in the presence of chemical substance/The level of expressed mRNA in the absence of chemical substance: 1.9
Yeast gene YOR130C
  The level of expressed mRNA in the presence of chemical substance/The level of expressed mRNA in the absence of chemical substance: 1.6
Yeast gene YOR153W
  The level of expressed mRNA in the presence of chemical substance/The level of expressed mRNA in the absence of chemical substance: 7.4
Yeast gene YOR270C
  The level of expressed mRNA in the presence of chemical substance/The level of expressed mRNA in the absence of chemical substance: 1.8
Yeast gene YOR273C
  The level of expressed mRNA in the presence of chemical substance/The level of expressed mRNA in the absence of chemical substance: 0.4
Yeast gene YOR316C
  The level of expressed mRNA in the presence of chemical substance/The level of expressed mRNA in the absence of chemical substance: 0.9
Yeast gene YOR328W
  The level of expressed mRNA in the presence of chemical substance/The level of expressed mRNA in the absence of chemical substance: 2.9
Yeast gene YOR332W
  The level of expressed mRNA in the presence of chemical substance/The level of expressed mRNA in the absence of chemical substance: 1.8
Yeast gene YOR348C
  The level of expressed mRNA in the presence of chemical substance/The level of expressed mRNA in the absence of chemical substance: 0.7
Yeast gene YPL036W
  The level of expressed mRNA in the presence of chemical substance/The level of expressed mRNA in the absence of chemical substance: 0.7
Yeast gene YPL134C
  The level of expressed mRNA in the presence of chemical substance/The level of expressed mRNA in the absence of chemical substance: 1.2
Yeast gene YPL265W
  The level of expressed mRNA in the presence of chemical substance/The level of expressed mRNA in the absence of chemical substance: 2.3
Yeast gene YPL271W
  The level of expressed mRNA in the presence of chemical substance/The level of expressed mRNA in the absence of chemical substance: 3.3
Yeast gene YPR124W
  The level of expressed mRNA in the presence of chemical substance/The level of expressed mRNA in the absence of chemical substance: 2.0
Yeast gene YPR192W
  The level of expressed mRNA in the presence of chemical substance/The level of expressed mRNA in the absence of chemical substance: 0.9
Yeast gene YPR194C
  The level of expressed mRNA in the presence of chemical substance/The level of expressed mRNA in the absence of chemical substance: 1.5
